# Experimental data taken from patent US11590092B2, “Skin probiotic” (The Regents of the University of California, priority 2014, dated 2023).
# Columns and labels:
# E. coli = test: Radial diffusion assay against E. coli; type: cell-based, Escherichia coli
# Protocol: (§1) A radial diffusion assay (RDA) was performed as follows. Briefly, microorganisms in the mid-log phase were centrifuged at 12,000×g for 10 min, washed with PBS, and dispersed (10^5 cfu/ml) in agar consisting of 1% (w/v) agarose (Sigma) and 3% (w/v) culture medium in PBS at 42° C. Then, the agar was poured into Petri dishes and solidified. Wells (diameter 3 mm and volume 30 μl) were created by poking a pipette tip into the semi-solidified agar. Propionic acid was serially diluted in PBS to concentrations ranging from 5 to 2,000 mM, and 30 μl aliquots were added to the wells; PBS served as the control. After 3 h of incubation, a 10 ml overlay gel composed of 3% culture medium and 1% agarose was poured onto the plates, where after the plates were incubated overnight and examined for zones of growth inhibition.
# C. albicans = test: Radial diffusion assay against C. albicans; type: cell-based, Candida albicans
# Protocol: as §1
# USA300 = test: Measurement of intracellular pH of USA300 (cFSE probe); type: cell-based, Staphylococcus aureus; details: 25 mM propionic acid, vs PBS
# Protocol: Measurement of intracellular pH. […] A drop in relative fluorescence indicated the decrease in intracellular pH. […] The fluorescence of the bacteria-free supernatant was measured and deducted from values for the treated suspensions.
# Fluorescence was measured for 5 min every min using an excitation wavelength of 490 nm and an emission wavelength of 520 nm. A reduction in relative fluorescence reflected a decrease in intracellular pH. Fluorescence of bacteria-free supernatant obtained by centrifugation at 5,000×g for 5 min after the 5-min assay was measured to correct for background fluorescence. Calibration curves were obtained by incubation of untreated, cFSE-loaded bacteria in buffer containing 50 mM glycine, 50 mM citric acid, 50 mM Na2HPO4.2H2O and 50 mM KCl adjusted to various pH values from 4-10. 1 μM valinomycin and nigericin (Sigma) were added to equilibrate the intracellular and extracellular pH.
# P. acnes = test: MBC test of propionic acid against P. acnes; type: cell-based, Propionibacterium acnes
# Protocol: To determine the minimal bactericidal concentration (MBC) and minimal fungicidal concentration (MFC) of propionic acid, microorganisms (10^6 colony forming units (cfu)/ml) were incubated overnight in media with propionic acid (1.25-2,000 mM) in a 96-well microplate (100 μl per well). The control only received PBS. After incubation, the microorganisms were diluted 1:10-1:10^6 into PBS. The dilutions (5 μl) were spotted onto agar media to count cfu; MBC/MFC were determined at 99.9% killing level. To determine the effect of pH on growth of S. aureus USA300, the bacterium was incubated in TSB at pH 5.8 and 6.8, and TSB with 25 mM propionic acid at pH 5.8 and 6.8 (buffered with 4-(2-hydroxyethyl)-1-piperazineethanesulfonic acid (HEPES)) in a 96-well microplate overnight before spotting onto agar plates.
smiles,measurement,setting,value
CCC(=O)O [propionic acid],"minimum effective concentration for growth inhibition zones, E. coli",E. coli,10 mM
same,"minimum effective concentration for growth inhibition zones, C. albicans",C. albicans,10 mM
same,intracellular pH of USA300,USA300,considerably lowered
same,concentration at which growth inhibition of P. acnes was detectable,"P. acnes; MBC tests, 5 to 2,000 mM tested",greater than 1000 mM
same,growth of P. acnes,P. acnes; propionic acid 25 mM,did not affect the growth
same,growth of P. acnes,"P. acnes; propionic acid between 5 and 500 mM, MBC tests",did not affect the growth
